Results: patent US6352982B1, “4,1-benzoxazepines, their analogues, and their use as somatostatin agonists” (Takeda Chemical Industries, Ltd., priority 1997, dated 2002)
Structures can show the parent of a compound that is named as a salt.

Test system: SD rats
Experiment: Insulin secretion inhibition study using SD rats
Format: in vivo, rat
Experimental: In order to study the inhibitory effect of the compound of Example 5 on the insulin secretion after the stimulation by glucose, blood was withdrawn at various time intervals after the simultaneous intravenous administration of the compound of Example 5 and glucose. Serum insulin concentrations were determined by RIA.
Male rats of SD strain (8 weeks of age, n=3) were weighed and anesthetized by the intraperitoneal administration of 50 mg/kg of pentobarbital. As blood clotting inhibitor 30 mg of EDTA was dissolved in 300 μl of 50,000 units/ml Trasylol (Bayer) solution, and the solution was placed into Eppendorf blood collecting tubes each in quantity of […]. After fixing the rat on the rat fixing apparatus, the unilateral jugular vein was exposed and 100 μl of the blood was withdrawn from the vein by using a 25G injection needle. The test solution for the control group [without glucose] was saline containing 5% propylene glycol and 30% hydroxypropyl-β-cyclodextrin. The test solution for the control group [with glucose] was saline containing 5% propylene glycol, 30% hydroxypropyl-β-cyclodextrin, and 300 mg/kg/ml of glucose. […]
Plasma insulin concentrations were determined by RIA using the rat insulin [125I] assay system (Amersham). […] The radioactivity of the sediment was measured by gamma counter. […]

## NCc1cccc(C2OC(CC(=O)NCc3ccccc3F)C(=O)N(Cc3ccc(-c4ccccc4)cc3)c3ccc(Cl)cc32)c1 (stereo not drawn) [Example 5, 3,5-Trans-N-(2-fluorobenzyl)-5-(3-aminomethylphenyl)-1-(4-biphenylmethyl)-7-chloro-2-oxo-1,2,3,5-tetrahydro-4,1-benzoxazepine-3-acetamide•monohydrochloride]
Intravenous 0.003, 0.03, 0.3 or 3 mg/kg with glucose, male SD rats
  Elevation of the plasma insulin concentration after glucose: dose-dependently inhibited
Simultaneous intravenous administration with glucose, anesthetized male SD rats
  Dosage which inhibited the elevation of insulin concentration by 50%: about 0.03 mg/kg
